Measured values taken from US8613914B2, “Peptidomimetic sulfamide compounds and antiviral uses thereof” (Novartis AG, priority 2009, dated 2013).

Each compound was assayed against HCV NS3-4A serine protease (full-length NS3-4A protein) (Hepatitis C virus genotype 1a (isolate 1) (HCV), UniProt P26664) (assay: HCV NS3-4A protease assay). Details: strain HCV-1, fluorogenic peptide substrate, read-out: Protease assay Ex. 12 IC50.
Format: biochemical, HCV genotype 1a
Procedure: The inhibitory activity of certain compounds of Table A against HCV NS3-4A serine protease is determined in a homogenous assay using the full-length NS3-4A protein (genotype 1a, strain HCV-1) and a commercially available internally-quenched fluorogenic peptide substrate as described by Taliani, M., et al. 1996 Anal. Biochem. 240:60-67, which is incorporated by reference in its entirety.

Sequence of HCV NS3-4A serine protease (full-length NS3-4A protein) (P26664 1027-1657): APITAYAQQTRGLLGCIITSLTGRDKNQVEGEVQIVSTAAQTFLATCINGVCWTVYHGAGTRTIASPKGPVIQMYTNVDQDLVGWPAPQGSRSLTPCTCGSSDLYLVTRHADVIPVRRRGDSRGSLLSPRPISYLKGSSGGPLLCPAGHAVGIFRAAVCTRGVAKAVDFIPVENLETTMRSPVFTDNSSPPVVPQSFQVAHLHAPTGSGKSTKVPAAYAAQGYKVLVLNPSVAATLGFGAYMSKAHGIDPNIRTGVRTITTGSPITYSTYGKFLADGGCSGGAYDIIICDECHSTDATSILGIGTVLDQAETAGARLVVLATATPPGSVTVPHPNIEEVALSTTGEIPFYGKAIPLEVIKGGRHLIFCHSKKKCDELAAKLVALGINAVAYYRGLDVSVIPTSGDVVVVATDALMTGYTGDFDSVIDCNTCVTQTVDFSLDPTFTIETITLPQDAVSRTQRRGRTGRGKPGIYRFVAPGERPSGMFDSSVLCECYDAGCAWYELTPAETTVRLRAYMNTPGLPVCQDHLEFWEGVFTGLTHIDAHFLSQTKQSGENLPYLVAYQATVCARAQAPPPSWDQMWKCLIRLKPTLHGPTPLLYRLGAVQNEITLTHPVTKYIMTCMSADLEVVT
Sequence of HCV NS3-4A serine protease (full-length NS3-4A protein) (P26664 1658-1711 partner): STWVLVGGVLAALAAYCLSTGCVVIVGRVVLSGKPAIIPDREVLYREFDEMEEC

| Structure (SMILES) | IC50 |
| --- | --- |
| C=C[C@@H]1C[C@]1(NC(=O)[C@@H]1C[C@@]2(CN1C(=O)[C@@H](NC(=O)[C@@H](NC(=O)[C@@H]1CCCCN1C(C)C)C1CCCCC1)C(C)(C)C)C(C)(C)C21CCC1)C(=O)NS(=O)(=O)N(C)C(C)C [Compound 108, (5R,8S)-7-[(2S)-2-{[(2S)-2-cyclohexyl-2-({[(2S)-1-isopropylpiperidin-2-yl]carbonyl}amino)acetyl]amino}-3,3-dimethylbutanoyl]-N-[(1R,2S)-1-({[isopropyl(methyl)amino]sulfonyl}carbamoyl)-2-vinylcyclopropyl]-10,10-dimethyl-7-azadispiro[3.0.4.1]decane-8-carboxamide] | 6 nM |
| C=C[C@@H]1C[C@]1(NC(=O)[C@@H]1C[C@@]2(CN1C(=O)[C@@H](NC(=O)C(Nc1cccnc1)C(C)(C)C)C(C)(C)C)C(C)(C)C21CCC1)C(=O)NS(=O)(=O)N1CCCC1 (stereo partly drawn) [Compound 51, (5R,8S)-7-[(2S)-2-{[3,3-dimethyl-2-(pyridin-3-ylamino)butanoyl]amino}-3,3-dimethylbutanoyl]-10,10-dimethyl-N-{(1R,2S)-1-[(pyrrolidin-1-ylsulfonyl)carbamoyl]-2-vinylcyclopropyl}-7-azadispiro[3.0.4.1]decane-8-carboxamide] | 1150 nM |
| C=C[C@@H]1C[C@]1(NC(=O)[C@@H]1C[C@@]2(CN1C(=O)[C@@H](NC(=O)[C@@H](NC(=O)[C@@H]1CCCCN1CCF)C1CCCCC1)C(C)(C)C)C(C)(C)C21CCC1)C(=O)NS(=O)(=O)N1CCCC1 [Compound 26, (5R,8S)-7-[(2S)-2-{[(2S)-2-cyclohexyl-2-({[(2S)-1-(2-fluoroethyl)piperidin-2-yl]carbonyl}amino)acetyl]amino}-3,3-dimethylbutanoyl]-10,10-dimethyl-N-{(1R,2S)-1-[(pyrrolidin-1-ylsulfonyl)carbamoyl]-2-vinylcyclopropyl}-7-azadispiro[3.0.4.1]decane-8-carboxamide] | 15 nM |
| C=C[C@@H]1C[C@]1(NC(=O)[C@@H]1C[C@@]2(CN1C(=O)[C@@H](NC(=O)[C@@H](NC(=O)[C@@H]1CCCCN1C1CCCC1)C1CCCCC1)C(C)(C)C)C(C)(C)C21CCC1)C(=O)NS(=O)(=O)N(CC)CC [Compound 64, (5R,8S)-7-[(2S)-2-{[(2S)-2-cyclohexyl-2-({[(2S)-1-cyclopentylpiperidin-2-yl]carbonyl}amino)acetyl]amino}-3,3-dimethylbutanoyl]-N-[(1R,2S)-1-{[(diethylamino)sulfonyl]carbamoyl}-2-vinylcyclopropyl]-10,10-dimethyl-7-azadispiro[3.0.4.1]decane-8-carboxamide] | 2 nM |
| C=C[C@@H]1C[C@]1(NC(=O)[C@@H]1C[C@@]2(CN1C(=O)[C@@H](NC(=O)[C@@H](NC(=O)c1cnccn1)C1CCCCC1)C(C)(C)C)C(C)(C)C21CCC1)C(=O)NS(=O)(=O)NC(C)(C)C [Compound 166, (5R,8S)-N-[(1R,2S)-1-{[(tert-butylamino)sulfonyl]carbamoyl}-2-vinylcyclopropyl]-7-[(2S)-2-({(2S)-2-cyclohexyl-2-[(pyrazin-2-ylcarbonyl)amino]acetyl}amino)-3,3-dimethylbutanoyl]-10,10-dimethyl-7-azadispiro[3.0.4.1]decane-8-carboxamide] | 10 nM |
| C=C[C@@H]1C[C@]1(NC(=O)[C@@H]1C[C@@]2(CN1C(=O)[C@@H](NC(=O)[C@@H](NC(=O)[C@@H]1CCCCN1C1CCCC1)C1CCCCC1)C(C)(C)C)C(C)(C)C21CCC1)C(=O)NS(=O)(=O)N1CCCC1 [Compound 32, (5R,8S)-7-[(2S)-2-{[(2S)-2-cyclohexyl-2-({[(2S)-1-cyclopentylpiperidin-2-yl]carbonyl}amino)acetyl]amino}-3,3-dimethylbutanoyl]-10,10-dimethyl-N-{(1R,2S)-1-[(pyrrolidin-1-ylsulfonyl)carbamoyl]-2-vinylcyclopropyl}-7-azadispiro[3.0.4.1]decane-8-carboxamide] | 1 nM |
| C=C[C@@H]1C[C@]1(NC(=O)[C@@H]1C[C@@]2(CN1C(=O)[C@@H](NC(=O)[C@@H](NC(=O)c1cnccn1)C1CCOCC1)C(C)(C)C)C(C)(C)C21CCC1)C(=O)NS(=O)(=O)N1CCCC1 [Compound 43, (5R,8S)-7-[(2S)-3,3-dimethyl-2-{[(2S)-2-[(pyrazin-2-ylcarbonyl)amino]-2-(tetrahydro-2H-pyran-4-yl)acetyl]amino}butanoyl]-10,10-dimethyl-N-{(1R,2S)-1-[(pyrrolidin-1-ylsulfonyl)carbamoyl]-2-vinylcyclopropyl}-7-azadispiro[3.0.4.1]decane-8-carboxamide] | 60 nM |
| C=C[C@@H]1C[C@]1(NC(=O)[C@@H]1C[C@@]2(CN1C(=O)[C@@H](NC(=O)[C@@H](NC(=O)[C@@H]1CCCCN1C(C)C)C1CCCCC1)C(C)(C)C)C(C)(C)C21CCC1)C(=O)NS(=O)(=O)N(C)CCOC [Compound 56, (5R,8S)-7-[(2S)-2-{[(2S)-2-cyclohexyl-2-({[(2S)-1-isopropylpiperidin-2-yl]carbonyl}amino)acetyl]amino}-3,3-dimethylbutanoyl]-N-[(1R,2S)-1-({[(2-methoxyethyl)(methyl)amino]sulfonyl}carbamoyl)-2-vinylcyclopropyl]-10,10-dimethyl-7-azadispiro[3.0.4.1]decane-8-carboxamide] | 8 nM |
| C=C[C@@H]1C[C@]1(NC(=O)[C@@H]1C[C@@]2(CN1C(=O)[C@@H](NC(=O)[C@@H](NC(=O)C(C)(C)N1CCCC1)C1CCCCC1)C(C)(C)C)C(C)(C)C21CCC1)C(=O)NS(=O)(=O)N1CCCC1 [Compound 14, (5R,8S)-7-[(2S)-2-({(2S)-2-cyclohexyl-2-[(2-methyl-2-pyrrolidin-1-ylpropanoyl)amino]acetyl}amino)-3,3-dimethylbutanoyl]-10,10-dimethyl-N-{(1R,2S)-1-[(pyrrolidin-1-ylsulfonyl)carbamoyl]-2-vinylcyclopropyl}-7-azadispiro[3.0.4.1]decane-8-carboxamide] | 3 nM |
| C=C[C@@H]1C[C@]1(NC(=O)[C@@H]1C[C@@]2(CN1C(=O)[C@@H](NC(=O)[C@@H](NC(=O)[C@H]1CCCCN1C(C)C)C1CCCCC1)C(C)(C)C)C(C)(C)C21CCC1)C(=O)NS(=O)(=O)N(CC)CCC [Compound 137, (5R,8S)-7-[(2S)-2-{[(2S)-2-cyclohexyl-2-({[(2R)-1-isopropylpiperidin-2-yl]carbonyl}amino)acetyl]amino}-3,3-dimethylbutanoyl]-N-[(1R,2S)-1-({[ethyl(propyl)amino]sulfonyl}carbamoyl)-2-vinylcyclopropyl]-10,10-dimethyl-7-azadispiro[3.0.4.1]decane-8-carboxamide] | 3.5 nM |
| C=C[C@@H]1C[C@]1(NC(=O)[C@@H]1C[C@@]2(CN1C(=O)[C@@H](NC(=O)[C@@H](NC(=O)[C@@H]1CCCCN1C(C)C)C1CCCCC1)C1CCCC1)C(C)(C)C21CCC1)C(=O)NS(=O)(=O)N1CCCC1 [Compound 66, (5R,8S)-7-[(2S)-2-{[(2S)-2-cyclohexyl-2-({[(2S)-1-isopropylpiperidin-2-yl]carbonyl}amino)acetyl]amino}-2-cyclopentylacetyl]-10,10-dimethyl-N-{(1R,2S)-1-[(pyrrolidin-1-ylsulfonyl)carbamoyl]-2-vinylcyclopropyl}-7-azadispiro[3.0.4.1]decane-8-carboxamide] | 5.5 nM |
| C=C[C@@H]1C[C@]1(NC(=O)[C@@H]1C[C@@]2(CN1C(=O)[C@@H](NC(=O)[C@@H](NC(=O)Cc1ccncc1)C1CCCCC1)C(C)(C)C)C(C)(C)C21CCC1)C(=O)NS(=O)(=O)N1CCCC1 [Compound 175, (5R,8S)-7-[(2S)-2-({cyclohexyl[(pyridin-4-ylacetyl)amino]acetyl}amino)-3,3-dimethylbutanoyl]-10,10-dimethyl-N-{(1R,2S)-1-[(pyrrolidin-1-ylsulfonyl)carbamoyl]-2-vinylcyclopropyl}-7-azadispiro[3.0.4.1]decane-8-carboxamide] | 10 nM |
| C=C[C@@H]1C[C@]1(NC(=O)[C@@H]1C[C@@]2(CN1C(=O)[C@@H](NC(=O)[C@@H](NC(=O)c1ccc3occc3c1)C1CCCCC1)C(C)(C)C)C(C)(C)C21CCC1)C(=O)NS(=O)(=O)N1CCCC1 [Compound 192, (5R,8S)-7-[(2S)-2-({[(1-benzofuran-5-ylcarbonyl)amino](cyclohexyl)acetyl}amino)-3,3-dimethylbutanoyl]-10,10-dimethyl-N-{(1R,2S)-1-[(pyrrolidin-1-ylsulfonyl)carbamoyl]-2-vinylcyclopropyl}-7-azadispiro[3.0.4.1]decane-8-carboxamide] | 25 nM |
| C=C[C@@H]1C[C@]1(NC(=O)[C@@H]1C[C@@]2(CN1C(=O)[C@@H](NC(=O)CC1(CC(N)=O)CCCCC1)C(C)(C)C)C(C)(C)C21CCC1)C(=O)NS(=O)(=O)N1CCCC1 [Compound 60, (5R,8S)-7-[(2S)-2-({[1-(2-amino-2-oxoethyl)cyclohexyl]acetyl}amino)-3,3-dimethylbutanoyl]-10,10-dimethyl-N-{(1R,2S)-1-[(pyrrolidin-1-ylsulfonyl)carbamoyl]-2-vinylcyclopropyl}-7-azadispiro[3.0.4.1]decane-8-carboxamide] | 1250 nM |
| C=C[C@@H]1C[C@]1(NC(=O)[C@@H]1C[C@@]2(CN1C(=O)[C@@H](NC(=O)[C@@H](NC(=O)[C@@H]1CCCCN1C(C)C)C1CCCCC1)C(C)(C)C)C(C)(C)C21CCC1)C(=O)NS(=O)(=O)N1CC[C@H](F)C1 [Compound 46, (5R,8S)-7-[(2S)-2-{[(2S)-2-cyclohexyl-2-({[(2S)-1-isopropylpiperidin-2-yl]carbonyl}amino)acetyl]amino}-3,3-dimethylbutanoyl]-N-[(1R,2S)-1-({[(3S)-3-fluoropyrrolidin-1-yl]sulfonyl}carbamoyl)-2-vinylcyclopropyl]-10,10-dimethyl-7-azadispiro[3.0.4.1]decane-8-carboxamide] | 2 nM |
